Converted amounts (≈) assume the structure as drawn.
Experiments:
Sortase A = molecular target: T1, Sortase A (Staphylococcus aureus, UniProt Q9S446); test: Inhibition of recombinant Staphylococcus aureus ATCC 6538p sortase A incubated for 1 hr in presence of (Dabcyl-QALPETGEE-Edans substrate by fluorescence spectrophotometry
T1 sequence (Q9S446 whole entry): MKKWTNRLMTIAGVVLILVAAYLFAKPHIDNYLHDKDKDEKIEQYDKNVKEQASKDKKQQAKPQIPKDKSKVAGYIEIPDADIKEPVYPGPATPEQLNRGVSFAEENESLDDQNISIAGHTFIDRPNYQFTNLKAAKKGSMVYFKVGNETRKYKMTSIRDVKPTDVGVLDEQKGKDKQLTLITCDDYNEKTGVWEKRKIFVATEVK

[1] = Inhibition of Magnaporthe grisea Guy 11 isocitrate lyase; set-up: species or system Pyricularia grisea
[2] = molecular target: Sodium/potassium-transporting ATPase; test: Inhibition of Na+/K+-ATPase in human placental syncytiotrophoblast-microvillous membranes/basal membranes using 3-O-methylfluorescein phosphate by fluorometric method
PC-12 = test: Anti-anoxic activity in rat PC12 cells reduction in assessed as sodium hydrosulfite-induced cell injury; format: functional, cell-based
Cathepsin B = Cathepsin B (Homo sapiens, UniProt P07858); test: Inhibition of cathepsin B (unknown origin) assessed as reduction in enzyme activity

SMILES | IC50 (Sortase A) [µM] | IC50 [1] [µM] | IC50 [2] [µM] | EC50 (PC-12) [µg/mL] | other results
COC(=O)c1ccccc1NC(=O)[C@H](CO)NC(=O)c1cnc2c(n1)c(=O)[nH]c(=O)n2C | > 100 | > 100 | > 100 |  | 
CSc1c(C(=O)O)sc2nc3[nH]c(=O)[nH]c(=O)c3nc12 |  |  |  | 27 (≈ 87 µM) | 
CN(CCc1cnc[nH]1)c1cnc2[nH]c(=O)[nH]c(=O)c2n1 |  |  |  |  | IC50 (Cathepsin B): 4.87 µM
COC(=O)c1ccccc1NC(=O)[C@@H](NC(=O)c1cnc2c(n1)c(=O)[nH]c(=O)n2C)[C@@H](C)O | > 100 | > 100 | > 100 |  | 
CSc1c(C(=O)CO)sc2nc3[nH]c(=O)[nH]c(=O)c3nc12 |  |  |  | 19.5 (≈ 60.2 µM) | 
COCCOC(=O)C1=C(C)NC(C)=C(C(=O)OC(C)C)C1c1cccc([N+](=O)[O-])c1 (stereo not given) [NIMODIPINE] |  |  |  | 1.29 (≈ 3.08 µM) | 

Reference: ChEMBL document CHEMBL4376811, “Naturally Occurring Lumazines” (J Nat Prod, 2019)
